Tests used:
[1] = molecular target: T1, Human Neuropeptide Y2 Receptor (Homo sapiens, UniProt P49146); experiment: Radioligand binding competition assay (RLB); conditions: Table 3, 125I-PYY(1-36) competition; read-out: Ki
T1 construct: purchased CHEMICON HTS066M
T1 sequence (P49146 1-381): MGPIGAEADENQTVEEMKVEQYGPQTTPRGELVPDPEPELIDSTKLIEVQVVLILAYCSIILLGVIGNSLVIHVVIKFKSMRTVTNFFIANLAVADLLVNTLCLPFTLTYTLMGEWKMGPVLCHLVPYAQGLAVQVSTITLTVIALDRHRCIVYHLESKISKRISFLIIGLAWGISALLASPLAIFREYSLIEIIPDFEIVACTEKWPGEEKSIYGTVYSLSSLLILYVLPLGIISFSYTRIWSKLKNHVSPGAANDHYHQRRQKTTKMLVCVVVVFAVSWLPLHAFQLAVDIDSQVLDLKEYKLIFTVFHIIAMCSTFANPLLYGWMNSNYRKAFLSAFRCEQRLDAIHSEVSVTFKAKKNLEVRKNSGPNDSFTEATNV
Summary of the method: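 Displacement of radioligand is measured after 2 h at room temperature with receptor membranes in Mg2+/Ca2+ HEPES buffer, pH 7.4. Filter-bound radioactivity is counted and IC50 obtained from curve fitting.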

Solubility determination = conditions: for Sol6: pH 6; for Sol7: pH 7
Summary of the method: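 Solubility is derived from the ratio of reversed-phase peak areas, filtered sample over a control dissolved at 1 mg/ml in 50% acetonitrile. Peptides are agitated for 2 hours at room temperature in 0.1 M sodium diphosphate at pH 6.4 or 7.0, aiming at 10 mg/ml.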

[2] = molecular target: T2, human NPY5 receptor (hY5R) (Homo sapiens, UniProt Q15761); experiment: HTRF cAMP Gi assay, hY5R
T2 sequence (Q15761 1-445): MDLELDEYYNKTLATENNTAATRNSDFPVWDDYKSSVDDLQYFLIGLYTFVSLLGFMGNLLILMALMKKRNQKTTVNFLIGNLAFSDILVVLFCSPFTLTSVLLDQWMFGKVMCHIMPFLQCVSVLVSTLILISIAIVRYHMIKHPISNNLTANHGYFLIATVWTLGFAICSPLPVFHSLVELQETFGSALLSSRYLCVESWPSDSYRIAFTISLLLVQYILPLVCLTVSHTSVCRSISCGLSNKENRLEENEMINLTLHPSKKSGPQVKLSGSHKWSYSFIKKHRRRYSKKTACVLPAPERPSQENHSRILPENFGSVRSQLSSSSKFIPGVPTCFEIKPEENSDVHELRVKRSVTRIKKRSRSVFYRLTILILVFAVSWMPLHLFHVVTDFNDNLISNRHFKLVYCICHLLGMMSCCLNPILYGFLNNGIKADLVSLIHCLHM
Protocol: Briefly, the production of intracellular cAMP will generate a competition between unlabeled cAMP and exogenously added d2-cAMP for anti-cAMP antibodies conjugated to cryptate. CHO-K1 cells stably expressing the human NPY1, NPY2, NPY4 and NPY5 receptors were used with the cells brought to life from a frozen stock immediately before assay performance. 2000 cells per well were applied for all four NPY receptor subtype assays. A 384-well format was used applying a total volume of 20 μl using 5 μl cells, 2.5 μl peptide agonist, 2.5 μl forskolin and 5 μl of each of the fluorophores. […] Concentration-response evaluation of compounds was performed with 11 concentrations of agonist peptides (covering 3 decades). EC50 values were calculated by nonlinear regression using sigmoid concentration-response with variable slope.

CC(C)CC(=O)N[C@@H](C)C(=O)N1CCC[C@H]1C(=O)N[C@@H](CCC(=O)O)C(=O)N[C@@H](CCCCNC(=O)CCCCCNC(=O)CC[C@H](NC(=O)CCCCCCCCCCCCCCCCC(=O)O)C(=O)O)C(=O)N1CCC[C@H]1C(=O)N[C@@H](CCC(=O)O)C(=O)N[C@@H](CCC(=O)O)C(=O)N[C@@H](CC(=O)O)C(=O)N[C@@H](C)C(=O)N[C@H](C(=O)N1CCC[C@H]1C(=O)N[C@@H](CCC(=O)O)C(=O)N[C@@H](CCC(=O)O)C(=O)N[C@@H](CC(C)C)C(=O)N[C@@H](CCC(N)=O)C(=O)N[C@@H](CCCCN)C(=O)N[C@@H](Cc1ccc(O)cc1)C(=O)N[C@@H](Cc1ccc(O)cc1)C(=O)N[C@H](C(=O)N[C@@H](CO)C(=O)N[C@@H](CC(C)C)C(=O)N[C@@H](CCCNC(=N)N)C(=O)N[C@@H](Cc1c[nH]cn1)C(=O)N[C@@H](Cc1ccc(O)cc1)C(=O)N[C@@H](Cc1ccc(O)cc1)C(=O)N[C@@H](CC(N)=O)C(=O)N[C@@H](Cc1c[nH]c2ccccc12)C(=O)N[C@@H](CC(C)C)C(=O)N[C@H](C(=O)N[C@@H](CCCNC(=N)N)C(=O)N[C@@H](CCC(N)=O)C(=O)N[C@@H](CCCNC(=N)N)C(=O)N[C@@H](Cc1ccc(O)cc1)C(N)=O)[C@@H](C)O)C(C)C)[C@@H](C)O [Compound 16, N{alpha-4}-(3-methylbutanoyl)-N{epsilon-7}-(6-[(4S)-4-carboxy-4-(17-carboxyheptadecanamido)butanamido]hexanoyl)[4A,7K,9E,13T,18Q,19K,22V,28Y,30W,31L]-hPYY(4-36)]
Ki [1]: 2.81 nM | Sol6 (Solubility determination): 10.0 mg/mL | Sol7 (Solubility determination): 8.3 mg/mL | EC50 [2]: > 5000 nM

CC(C)CC(=O)N[C@@H](C)C(=O)N1CCC[C@H]1C(=O)N[C@@H](CCC(=O)O)C(=O)N[C@@H](CCCCNC(=O)CCCCCNC(=O)CC[C@H](NC(=O)CCCCCCCCCCCCCCCCC(=O)O)C(=O)O)C(=O)N1CCC[C@H]1C(=O)N[C@@H](CCC(=O)O)C(=O)N[C@@H](CCC(=O)O)C(=O)N[C@@H](CCC(=O)O)C(=O)N[C@@H](C)C(=O)N[C@@H](CO)C(=O)N1CCC[C@H]1C(=O)N[C@@H](CCC(=O)O)C(=O)N[C@@H](CCC(=O)O)C(=O)N[C@@H](CC(C)C)C(=O)N[C@@H](CCC(N)=O)C(=O)N[C@@H](CCCNC(=N)N)C(=O)N[C@@H](Cc1ccc(O)cc1)C(=O)N[C@@H](Cc1ccc(O)cc1)C(=O)N[C@H](C(=O)N[C@@H](CO)C(=O)N[C@@H](CC(C)C)C(=O)N[C@@H](CCCNC(=N)N)C(=O)N[C@@H](Cc1c[nH]cn1)C(=O)N[C@@H](Cc1ccc(O)cc1)C(=O)N[C@@H](Cc1ccc(O)cc1)C(=O)N[C@@H](CC(N)=O)C(=O)N[C@@H](Cc1c[nH]c2ccccc12)C(=O)N[C@@H](CC(C)C)C(=O)N[C@H](C(=O)N[C@@H](CCCNC(=N)N)C(=O)N[C@@H](CCC(N)=O)C(=O)N[C@@H](CCCNC(=N)N)C(=O)N[C@@H](Cc1ccc(O)cc1)C(N)=O)[C@@H](C)O)C(C)C [Compound 23, N{alpha-4}-(3-methylbutanoyl)-N{epsilon-7}-(6-[(4S)-4-carboxy-4-(17-carboxyheptadecanamido)butanamido]hexanoyl)[4A,7K,9E,11E,18Q,22V,28Y,30W,31L]-hPYY(4-36)]
Ki [1]: 12.6 nM | Sol6 (Solubility determination): 9.8 mg/mL | Sol7 (Solubility determination): 10.0 mg/mL | EC50 [2]: > 5000 nM

CC[C@H](C)[C@H](NC(=O)[C@H](CCC(=O)O)NC(=O)[C@H](CCC(=O)O)NC(=O)[C@@H]1CCCN1C(=O)[C@H](CO)NC(=O)[C@H](C)NC(=O)[C@H](CC(=O)O)NC(=O)[C@H](CCC(=O)O)NC(=O)[C@H](CCC(=O)O)NC(=O)[C@@H]1CCCN1C(=O)[C@H](CCCCNC(=O)CCCCCNC(=O)CC[C@H](NC(=O)CCCCCCCCCCCCCCCCC(=O)O)C(=O)O)NC(=O)[C@H](CCC(=O)O)NC(=O)[C@@H]1CCCN1C(=O)[C@H](C)NC(=O)CC(C)C)C(=O)N[C@@H](CCC(N)=O)C(=O)N[C@@H](CCCNC(=N)N)C(=O)N[C@@H](Cc1ccc(O)cc1)C(=O)N[C@@H](Cc1ccc(O)cc1)C(=O)N[C@H](C(=O)N[C@@H](CCC(=O)O)C(=O)N[C@@H](CC(C)C)C(=O)N[C@@H](CCCNC(=N)N)C(=O)N[C@@H](Cc1c[nH]cn1)C(=O)N[C@@H](Cc1ccc(O)cc1)C(=O)N[C@@H](Cc1ccc(O)cc1)C(=O)N[C@@H](CC(N)=O)C(=O)N[C@@H](Cc1c[nH]c2ccccc12)C(=O)N[C@@H](CC(C)C)C(=O)N[C@H](C(=O)N[C@@H](CCCNC(=N)N)C(=O)N[C@@H](CCC(N)=O)C(=O)N[C@@H](CCCNC(=N)N)C(=O)N[C@@H](Cc1ccc(O)cc1)C(N)=O)[C@@H](C)O)C(C)C [Compound 52, N{alpha-4}-(3-methylbutanoyl)-N{epsilon-7}-(6-[(4S)-4-carboxy-4-(17-carboxyheptadecanamido)butanamido]hexanoyl)-[4A,7K,9E,17I,18Q,22V,23E,28Y,30W,31L]-hPYY(4-36)]
Ki [1]: 2.39 nM | Sol6 (Solubility determination): 9.5 mg/mL | Sol7 (Solubility determination): 9.5 mg/mL | EC50 [2]: > 5000 nM

CC[C@H](C)[C@H](NC(=O)[C@H](Cc1ccc(O)cc1)NC(=O)[C@H](Cc1ccc(O)cc1)NC(=O)[C@H](CCCNC(=N)N)NC(=O)[C@H](CCC(N)=O)NC(=O)[C@H](CC(C)C)NC(=O)[C@H](CCC(=O)O)NC(=O)[C@H](CCC(=O)O)NC(=O)[C@@H]1CCCN1C(=O)[C@H](CO)NC(=O)[C@H](C)NC(=O)[C@H](CC(=O)O)NC(=O)[C@H](CCC(=O)O)NC(=O)[C@H](CCC(=O)O)NC(=O)[C@@H]1CCCN1C(=O)[C@H](CCCCNC(=O)CCCCCNC(=O)CC[C@H](NC(=O)CCCCCCCCCCCCCCCCC(=O)O)C(=O)O)NC(=O)[C@H](CCC(=O)O)NC(=O)[C@@H]1CCCN1C(=O)[C@H](C)NC(=O)CC(C)C)C(=O)N[C@@H](CO)C(=O)N[C@@H](CC(C)C)C(=O)N[C@@H](CCCNC(=N)N)C(=O)N[C@@H](Cc1c[nH]cn1)C(=O)N[C@@H](Cc1ccc(O)cc1)C(=O)N[C@@H](Cc1ccc(O)cc1)C(=O)N[C@@H](CC(N)=O)C(=O)N[C@@H](Cc1c[nH]c2ccccc12)C(=O)N[C@@H](CC(C)C)C(=O)N[C@H](C(=O)N[C@@H](CCCNC(=N)N)C(=O)N[C@@H](CCC(N)=O)C(=O)N[C@@H](CCCNC(=N)N)C(=O)N[C@@H](Cc1ccc(O)cc1)C(N)=O)[C@@H](C)O [Compound 76, N{alpha-4}-(3-methylbutanoyl)-N{epsilon-7}-(6-[(4S)-4-carboxy-4-(17-carboxyheptadecanamido)butanamido]hexanoyl)-[4A,7K,9E,18Q,22I,28Y,30W,31L]-hPYY(4-36)]
Ki [1]: 2.68 nM | Sol6 (Solubility determination): 10.0 mg/mL | Sol7 (Solubility determination): 10.0 mg/mL | EC50 [2]: > 5000 nM

Source: US12391737B2, “Soluble NPY2 receptor agonists” (Boehringer Ingelheim International GmbH, priority 2020, dated 2025)
